Source: publication PMC5224920, “Assessing the mechanism and therapeutic potential of modulators of the human Mediator complex-associated protein kinases” (eLife, 2016)

System: 12 single or co-culture in vitro tissue models of primary cells
Assay: Culture/co-culture cell model panel, extracellular biomarkers (DiscoveRx); for CCL2/MCP-1: reference of the scale not given here; for CD141/Thrombomodulin: reference of the scale not given here; for CD142/Tissue Factor: reference of the scale not given here; for CXCL8/IL-8: reference of the scale not given here; for CXCL9/MIG: reference of the scale not given here; for M-CSF: reference of the scale not given here; for Proliferation: reference of the scale not given here; for SRB: reference of the scale not given here
Type: cell-based, human

Cc1n[nH]c2ncc(C(=O)N3CCC[C@H]3c3ccc(Cl)cc3)cc12 [CMPD4]
CCL2/MCP-1 (3C, 1.00E4 nM): -0.095
CD54/ICAM-1 (3C, 1.00E4 nM): -0.015
CD62E/E-Selectin (3C, 1.00E4 nM): 0.054
CD87/uPAR (3C, 1.00E4 nM): -0.432
CD106/VCAM-1 (3C, 1.00E4 nM): 0.073
CD141/Thrombomodulin (3C, 1.00E4 nM): 0.088
CD142/Tissue Factor (3C, 1.00E4 nM): 0.112
CXCL8/IL-8 (3C, 1.00E4 nM): -0.381
CXCL9/MIG (3C, 1.00E4 nM): -0.030
HLA-DR (3C, 1.00E4 nM): -0.292
Proliferation (3C, 1.00E4 nM): -0.144
SRB (3C, 1.00E4 nM): -0.077
CCL2/MCP-1 (3C, 1.11E3 nM): -0.139
CD54/ICAM-1 (3C, 1.11E3 nM): -0.012
CD62E/E-Selectin (3C, 1.11E3 nM): 0.043
CD87/uPAR (3C, 1.11E3 nM): -0.475
CD106/VCAM-1 (3C, 1.11E3 nM): 0.074
CD141/Thrombomodulin (3C, 1.11E3 nM): 0.143
CD142/Tissue Factor (3C, 1.11E3 nM): 0.111
CXCL8/IL-8 (3C, 1.11E3 nM): -0.399
CXCL9/MIG (3C, 1.11E3 nM): -0.035
HLA-DR (3C, 1.11E3 nM): -0.213
Proliferation (3C, 1.11E3 nM): -0.067
SRB (3C, 1.11E3 nM): -0.088
CCL2/MCP-1 (3C, 1.23E2 nM): -0.155
CD54/ICAM-1 (3C, 1.23E2 nM): -0.013
CD62E/E-Selectin (3C, 1.23E2 nM): 0.033
CD87/uPAR (3C, 1.23E2 nM): -0.463
CD106/VCAM-1 (3C, 1.23E2 nM): 0.092
CD141/Thrombomodulin (3C, 1.23E2 nM): 0.134
CD142/Tissue Factor (3C, 1.23E2 nM): 0.145
CXCL8/IL-8 (3C, 1.23E2 nM): -0.289
CXCL9/MIG (3C, 1.23E2 nM): -0.028
HLA-DR (3C, 1.23E2 nM): -0.216
Proliferation (3C, 1.23E2 nM): -0.036
SRB (3C, 1.23E2 nM): -0.101
CCL2/MCP-1 (3C, 1.37E1 nM): -0.054
CD54/ICAM-1 (3C, 1.37E1 nM): -0.029
CD62E/E-Selectin (3C, 1.37E1 nM): 0.033
CD87/uPAR (3C, 1.37E1 nM): -0.383
CD106/VCAM-1 (3C, 1.37E1 nM): 0.060
CD141/Thrombomodulin (3C, 1.37E1 nM): 0.107
CD142/Tissue Factor (3C, 1.37E1 nM): 0.109
CXCL8/IL-8 (3C, 1.37E1 nM): -0.180
CXCL9/MIG (3C, 1.37E1 nM): -0.010
HLA-DR (3C, 1.37E1 nM): -0.145
Proliferation (3C, 1.37E1 nM): -0.003
SRB (3C, 1.37E1 nM): -0.076
CCL2/MCP-1 (3C, 3.33E3 nM): -0.119
CD54/ICAM-1 (3C, 3.33E3 nM): -0.027
CD62E/E-Selectin (3C, 3.33E3 nM): 0.034
CD87/uPAR (3C, 3.33E3 nM): -0.471
CD106/VCAM-1 (3C, 3.33E3 nM): 0.069
CD141/Thrombomodulin (3C, 3.33E3 nM): 0.129
CD142/Tissue Factor (3C, 3.33E3 nM): 0.128
CXCL8/IL-8 (3C, 3.33E3 nM): -0.412
CXCL9/MIG (3C, 3.33E3 nM): -0.032
HLA-DR (3C, 3.33E3 nM): -0.242
Proliferation (3C, 3.33E3 nM): -0.090
SRB (3C, 3.33E3 nM): -0.073
CCL2/MCP-1 (3C, 3.70E2 nM): -0.153
CD54/ICAM-1 (3C, 3.70E2 nM): -0.078
CD62E/E-Selectin (3C, 3.70E2 nM): 0.052
CD87/uPAR (3C, 3.70E2 nM): -0.455
CD106/VCAM-1 (3C, 3.70E2 nM): 0.094
CD141/Thrombomodulin (3C, 3.70E2 nM): 0.139
CD142/Tissue Factor (3C, 3.70E2 nM): 0.142
CXCL8/IL-8 (3C, 3.70E2 nM): -0.363
CXCL9/MIG (3C, 3.70E2 nM): -0.028
HLA-DR (3C, 3.70E2 nM): -0.210
Proliferation (3C, 3.70E2 nM): -0.026
SRB (3C, 3.70E2 nM): -0.097
CCL2/MCP-1 (3C, 4.12E1 nM): -0.076
CD54/ICAM-1 (3C, 4.12E1 nM): -0.033
CD62E/E-Selectin (3C, 4.12E1 nM): 0.032
CD87/uPAR (3C, 4.12E1 nM): -0.415
CD106/VCAM-1 (3C, 4.12E1 nM): 0.093
CD141/Thrombomodulin (3C, 4.12E1 nM): 0.127
CD142/Tissue Factor (3C, 4.12E1 nM): 0.136
CXCL8/IL-8 (3C, 4.12E1 nM): -0.222
CXCL9/MIG (3C, 4.12E1 nM): -0.007
HLA-DR (3C, 4.12E1 nM): -0.208
Proliferation (3C, 4.12E1 nM): -0.018
SRB (3C, 4.12E1 nM): -0.080
CCL2/MCP-1 (3C, 4.57E0 nM): 0.026
CD54/ICAM-1 (3C, 4.57E0 nM): -0.005
CD62E/E-Selectin (3C, 4.57E0 nM): 0.022
CD87/uPAR (3C, 4.57E0 nM): -0.265
CD106/VCAM-1 (3C, 4.57E0 nM): 0.039
CD141/Thrombomodulin (3C, 4.57E0 nM): 0.096
CD142/Tissue Factor (3C, 4.57E0 nM): 0.092
CXCL8/IL-8 (3C, 4.57E0 nM): -0.109
CXCL9/MIG (3C, 4.57E0 nM): -0.014
HLA-DR (3C, 4.57E0 nM): -0.077
Proliferation (3C, 4.57E0 nM): -0.017
SRB (3C, 4.57E0 nM): -0.052
CCL2/MCP-1 (/HDF3CT, 1.00E4 nM): -0.123
CD54/ICAM-1 (/HDF3CT, 1.00E4 nM): -0.074
CD106/VCAM-1 (/HDF3CT, 1.00E4 nM): 0.00544
CXCL8/IL-8 (/HDF3CT, 1.00E4 nM): -0.159
CXCL9/MIG (/HDF3CT, 1.00E4 nM): -0.043
CXCL10/IP-10 (/HDF3CT, 1.00E4 nM): -0.008
Collagen I (/HDF3CT, 1.00E4 nM): -0.050
M-CSF (/HDF3CT, 1.00E4 nM): -0.035
MMP-1 (/HDF3CT, 1.00E4 nM): -0.057
PAI-I (/HDF3CT, 1.00E4 nM): -0.206
SRB (/HDF3CT, 1.00E4 nM): -0.005
TIMP-2 (/HDF3CT, 1.00E4 nM): 0.00643
CCL2/MCP-1 (/HDF3CT, 1.11E3 nM): -0.116
CD54/ICAM-1 (/HDF3CT, 1.11E3 nM): -0.059
CD106/VCAM-1 (/HDF3CT, 1.11E3 nM): 0.008
CXCL8/IL-8 (/HDF3CT, 1.11E3 nM): -0.199
CXCL9/MIG (/HDF3CT, 1.11E3 nM): -0.051
CXCL10/IP-10 (/HDF3CT, 1.11E3 nM): 0.00172
Collagen I (/HDF3CT, 1.11E3 nM): -0.048
M-CSF (/HDF3CT, 1.11E3 nM): -0.052
MMP-1 (/HDF3CT, 1.11E3 nM): -0.043
PAI-I (/HDF3CT, 1.11E3 nM): -0.122
SRB (/HDF3CT, 1.11E3 nM): 0.010
TIMP-2 (/HDF3CT, 1.11E3 nM): 0.028
CCL2/MCP-1 (/HDF3CT, 1.23E2 nM): -0.004
CD54/ICAM-1 (/HDF3CT, 1.23E2 nM): -0.048
CD106/VCAM-1 (/HDF3CT, 1.23E2 nM): 0.017
CXCL8/IL-8 (/HDF3CT, 1.23E2 nM): -0.167
CXCL9/MIG (/HDF3CT, 1.23E2 nM): -0.040
CXCL10/IP-10 (/HDF3CT, 1.23E2 nM): 0.011
Collagen I (/HDF3CT, 1.23E2 nM): -0.027
M-CSF (/HDF3CT, 1.23E2 nM): -0.051
MMP-1 (/HDF3CT, 1.23E2 nM): 0.00166
PAI-I (/HDF3CT, 1.23E2 nM): -0.00646
SRB (/HDF3CT, 1.23E2 nM): 0.00373
TIMP-2 (/HDF3CT, 1.23E2 nM): 0.061
CCL2/MCP-1 (/HDF3CT, 1.37E1 nM): 0.037
CD54/ICAM-1 (/HDF3CT, 1.37E1 nM): -0.040
CD106/VCAM-1 (/HDF3CT, 1.37E1 nM): 0.019
CXCL8/IL-8 (/HDF3CT, 1.37E1 nM): -0.056
CXCL9/MIG (/HDF3CT, 1.37E1 nM): 0.00152
CXCL10/IP-10 (/HDF3CT, 1.37E1 nM): 0.022
Collagen I (/HDF3CT, 1.37E1 nM): -0.019
M-CSF (/HDF3CT, 1.37E1 nM): -0.071
MMP-1 (/HDF3CT, 1.37E1 nM): 0.083
PAI-I (/HDF3CT, 1.37E1 nM): 0.023
SRB (/HDF3CT, 1.37E1 nM): 0.004
TIMP-2 (/HDF3CT, 1.37E1 nM): 0.069
CCL2/MCP-1 (/HDF3CT, 3.33E3 nM): -0.101
CD54/ICAM-1 (/HDF3CT, 3.33E3 nM): -0.068
CD106/VCAM-1 (/HDF3CT, 3.33E3 nM): 0.005
CXCL8/IL-8 (/HDF3CT, 3.33E3 nM): -0.189
CXCL9/MIG (/HDF3CT, 3.33E3 nM): -0.053
CXCL10/IP-10 (/HDF3CT, 3.33E3 nM): 0.002
Collagen I (/HDF3CT, 3.33E3 nM): -0.071
M-CSF (/HDF3CT, 3.33E3 nM): -0.054
MMP-1 (/HDF3CT, 3.33E3 nM): -0.042
PAI-I (/HDF3CT, 3.33E3 nM): -0.184
SRB (/HDF3CT, 3.33E3 nM): 0.008
TIMP-2 (/HDF3CT, 3.33E3 nM): 0.012
CCL2/MCP-1 (/HDF3CT, 3.70E2 nM): -0.041
CD54/ICAM-1 (/HDF3CT, 3.70E2 nM): -0.059
CD106/VCAM-1 (/HDF3CT, 3.70E2 nM): 0.017
CXCL8/IL-8 (/HDF3CT, 3.70E2 nM): -0.180
CXCL9/MIG (/HDF3CT, 3.70E2 nM): -0.046
CXCL10/IP-10 (/HDF3CT, 3.70E2 nM): 0.00747
Collagen I (/HDF3CT, 3.70E2 nM): -0.040
